In ChEMBL document CHEMBL6120940, “Discovery of N-Aryl-N'-[4-(aryloxy)cyclohexyl]squaramide-Based Inhibitors of LXR/SREBP-1c Signaling Pathway Ameliorating Steatotic Liver Disease: Navigating the Role of SIRT6 Activation” (J Med Chem, 2024):
The source made the active and inactive calls. The calls are words filed in the database; no cut-off is given here.

How the values were obtained:
[1] = Downregulation of SREBP-1c mRNA expression in human HepG2 cells at 10 uM pretreated with compound for 30 mins followed by T0901317 addition and measured after 12 hrs by RT-qPCR analysis relative to control; assay type: functional; settings: time 12.5 hrs
[2] = AUC last in 16 hrs fasted ICR mouse at 20 mg/kg, po measured upto 8 hrs by LC-MS/MS analysis; assay type: ADME, organism-based; settings: in vivo
[3] = test system: HepG2; test: Cytotoxicity against human HepG2 cells at 10 uM measured after 24 hrs by CCK-8 method relative to control; assay type: functional
[4] = Metabolic stability in rat liver microsomes at 1 uM measured after 30 mins in presence of NADPH regeneration system by LC-MS/MS analysis; assay type: ADME, Microsome; settings: read-out: Stability
[5] = Stability in human plasma measured after 120 mins by LC-MS/MS analysis; assay type: ADME, cell-free; settings: read-out: Stability
[6] = Stability in rat plasma measured after 120 mins by LC-MS/MS analysis; assay type: ADME, cell-free; settings: read-out: Stability
[7] = target: CYP2C19 (Homo sapiens, UniProt P33261); test: Inhibition of CYP2C19 in human liver microsomes at 10 uM using S-mephenytoin as substrate preincubated for 5 mins followed by NADPH generating system addition and measured after 15 mins relative to control; assay type: ADME, Microsome; settings: probe S-mephenytoin, time 20 min
[8] = target: CYP2D6 (Homo sapiens, UniProt P10635); test: Inhibition of CYP2D6 in human liver microsomes at 10 uM using dextromethorphan as substrate preincubated for 5 mins followed by NADPH generating system addition and measured after 15 mins relative to control; assay type: ADME, Microsome; settings: probe dextromethorphan, time 20 min
[9] = Terminal half life in 16 hrs fasted ICR mouse at 2 mg/kg, iv measured upto 8 hrs by LC-MS/MS analysis; assay type: ADME, organism-based; settings: in vivo, read-out: beta t1/2 (converted)
[10] = MRT infinity in 16 hrs fasted ICR mouse at 2 mg/kg, iv measured upto 8 hrs by LC-MS/MS analysis; assay type: ADME, organism-based; settings: in vivo
[11] = Volume of distribution at steady state in 16 hrs fasted ICR mouse at 2 mg/kg, iv measured upto 8 hrs by LC-MS/MS analysis; assay type: ADME, organism-based; settings: in vivo, read-out: Vdss
[12] = Tmax in 16 hrs fasted ICR mouse at 20 mg/kg, po measured upto 8 hrs by LC-MS/MS analysis; assay type: ADME, organism-based; settings: in vivo
[13] = (§1) Downregulation of SREBP-1c mRNA expression in human HepG2 cells pretreated with compound for 30 mins followed by T0901317 addition and measured after 12 hrs by RT-qPCR analysis; assay type: functional, cell-based
[14] = test system: HepG2; test: as §1; assay type: functional, cell-based; settings: dose 0.01-100 µM, time 12.5 hrs
[15] = test system: HepG2; test: Downregulation of SREBP-1c expression level in human HepG2 cells pretreated with compound for 30 mins followed by T0901317 addition and measured after 12 hrs by RT-qPCR analysis; assay type: functional, cell-based; settings: dose 5-10 µM, time 12.5 hrs
[16] = test system: HepG2; test: Downregulation of ACACA expression level in human HepG2 cells at 5 to 10 uM pretreated with compound for 30 mins followed by T0901317 addition and measured after 12 hrs by RT-qPCR analysis; assay type: functional, cell-based; settings: dose 5-10 µM, time 12.5 hrs
[17] = test system: AML12; test: Downregulation of SREBP-1c expression level in mouse AML12 cells at 10 uM pretreated with compound for 30 mins followed by T0901317 addition and measured after 12 hrs by RT-qPCR analysis; assay type: functional, cell-based; settings: time 12.5 hrs
[18] = test system: HepG2; test: Downregulation of SREBP-1c expression level in human HepG2 cells at 5 to 10 uM pretreated with compound for 30 mins followed by GW3965 addition and measured after 12 hrs by RT-qPCR analysis; assay type: functional, cell-based; settings: dose 5-10 µM, time 12.5 hrs
[19] = test system: HepG2; test: Downregulation of SREBP-1c expression level in nucleus of human HepG2 cells at 10 uM pretreated with compound for 30 mins followed by GW3965 addition and measured after 12 hrs by immunoblot analysis; assay type: functional, cell-based; settings: time 12.5 hrs
[20] = test system: HepG2; test: Downregulation of SREBP-1c expression level in human HepG2 cells at 10 uM pretreated with compound for 30 mins followed by T0901317 addition and measured after 12 hrs by immunocytochemical analysis; assay type: functional, cell-based; settings: time 12.5 hrs
[21] = test system: HepG2; test: Downregulation of ACACA mRNA level in human HepG2 cells at 10 uM pretreated with compound for 30 mins followed by […] addition and measured after 12 hrs by RT-qPCR analysis; assay type: functional, cell-based; settings: time 12.5 hrs
[22] = test system: HepG2; test: Downregulation of ACACA mRNA level in human HepG2 cells at 10 uM pretreated with compound for 30 mins followed by T0901317 addition and measured after 12 hrs by RT-qPCR analysis; assay type: functional, cell-based; settings: time 12.5 hrs
[23] = test system: HepG2; test: Downregulation of SCD mRNA level in human HepG2 cells at 10 uM pretreated with compound for 30 mins followed by T0901317 addition and measured after 12 hrs by RT-qPCR analysis; assay type: functional, cell-based; settings: time 12.5 hrs
[24] = test system: Hepatocyte; test: Inhibition of LXR-induced fat accumulation in mouse Hepatocyte at 10 uM incubated for 30 mins followed by T0901317 addition by Oil red O staining based analysis; assay type: functional, cell-based
[25] = test system: Hepatocyte; test: Inhibition of Srebp-1c level in mouse hepatocyte at 10 uM preincubated with compound for 30 mins followed by T0901317 addition and measured after 12 hrs; assay type: functional, cell-based; settings: time 12.5 hrs
[26] = test system: Hepatocyte; test: Inhibition of Fasn level in mouse hepatocyte at 10 uM preincubated with compound for 30 mins followed by T0901317 addition and measured after 12 hrs; assay type: functional, cell-based; settings: time 12.5 hrs
[27] = test system: Hepatocyte; test: Inhibition of Scd level in mouse hepatocyte at 10 uM preincubated with compound for 30 mins followed by T0901317 addition and measured after 12 hrs; assay type: functional, cell-based; settings: time 12.5 hrs
[28] = test system: Hepatocyte; test: Effect on Acox-1 gene expression in mouse hepatocyte; assay type: functional, cell-based
[29] = test system: Hepatocyte; test: Effect on Acox-2 gene expression in mouse hepatocyte; assay type: functional, cell-based
[30] = test system: HepG2; test: Downregulation of LXR level in human HepG2 cells transfected with SIRT6 SiRNA at 10 uM preincubated for 30 mins followed by T0901317 addition and measured after 12 hrs; assay type: functional, cell-based; settings: time 12.5 hrs
[31] = test system: HepG2; test: Downregulation of ACACA expression in human HepG2 cells at 5 uM pretreated with compound for 30 mins followed by T0901317 addition and measured after 12 hrs in presence of compound C by immunoblot analysis; assay type: functional, cell-based; settings: time 12.5 hrs
[32] = test system: Mus musculus; test: Anti-lipogenic activity against high fat died induced male C57BL/6J mouse obesity model assessed as decrease in hepatic fat content at 15 mg/kg, po administered three times per week and measured for 5 weeks by Oil red O staining based analysis; assay type: functional, organism-based
[33] = test system: Mus musculus; test: Anti-lipogenic activity against high fat died induced male C57BL/6J mouse obesity model assessed as downregulation of scd level at 15 mg/kg, po administered three times per week and measured after 5 weeks by RT-qPCT analysis; assay type: functional, organism-based
[34] = test system: Mus musculus; test: Anti-lipogenic activity against high fat died induced male C57BL/6J mouse obesity model assessed as downregulation of Ccl2 mRNA level at 15 mg/kg, po administered three times per week and measured after 5 weeks by RT-qPCT analysis; assay type: functional, organism-based
[35] = test system: Mus musculus; test: Anti-lipogenic activity against high fat died induced male C57BL/6J mouse obesity model assessed as downregulation of Ccl5 mRNA level at 15 mg/kg, po administered three times per week and measured after 5 weeks by RT-qPCT analysis; assay type: functional, organism-based
[36] = test system: Mus musculus; test: Anti-lipogenic activity against high fat died induced male C57BL/6J mouse obesity model assessed as downregulation of Cxcl1 mRNA level at 15 mg/kg, po administered three times per week and measured after 5 weeks by RT-qPCT analysis; assay type: functional, organism-based

Sequence of CYP2D6 (P10635 whole entry): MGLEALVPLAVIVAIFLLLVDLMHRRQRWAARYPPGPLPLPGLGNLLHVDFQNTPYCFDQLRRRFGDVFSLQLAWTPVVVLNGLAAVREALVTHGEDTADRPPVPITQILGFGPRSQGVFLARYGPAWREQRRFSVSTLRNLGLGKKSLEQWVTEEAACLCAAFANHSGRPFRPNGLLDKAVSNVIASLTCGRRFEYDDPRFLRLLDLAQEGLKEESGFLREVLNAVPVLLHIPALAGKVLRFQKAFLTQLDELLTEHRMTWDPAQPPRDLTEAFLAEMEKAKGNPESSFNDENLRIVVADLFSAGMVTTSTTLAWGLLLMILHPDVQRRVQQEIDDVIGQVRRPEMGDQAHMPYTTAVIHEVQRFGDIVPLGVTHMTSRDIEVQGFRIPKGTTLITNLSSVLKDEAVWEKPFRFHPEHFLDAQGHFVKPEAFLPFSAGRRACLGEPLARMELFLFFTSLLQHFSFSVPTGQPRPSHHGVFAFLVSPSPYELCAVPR
Sequence of CYP2C19 (P33261 whole entry): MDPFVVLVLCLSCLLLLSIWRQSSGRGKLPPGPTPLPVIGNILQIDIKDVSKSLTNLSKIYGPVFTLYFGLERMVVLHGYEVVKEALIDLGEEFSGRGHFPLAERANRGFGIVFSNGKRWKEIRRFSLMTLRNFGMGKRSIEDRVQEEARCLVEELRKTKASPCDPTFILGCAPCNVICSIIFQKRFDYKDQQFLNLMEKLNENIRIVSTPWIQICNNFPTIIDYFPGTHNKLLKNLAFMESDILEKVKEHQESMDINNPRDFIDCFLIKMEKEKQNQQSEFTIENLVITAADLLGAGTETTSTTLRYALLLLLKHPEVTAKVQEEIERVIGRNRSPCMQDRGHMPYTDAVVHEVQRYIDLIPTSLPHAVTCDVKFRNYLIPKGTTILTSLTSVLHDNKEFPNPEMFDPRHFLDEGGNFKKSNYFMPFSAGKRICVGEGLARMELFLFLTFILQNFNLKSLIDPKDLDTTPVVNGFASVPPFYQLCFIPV

AUC(0-t) at 8 h [2]: 2820 ng·h/mL
remaining at 0.5 h, 1 µM [4]: 32.5%
remaining at 2 h [5]: 94.6%
remaining at 2 h [6]: 96.2%
inhibition at 0.25 h, 10 µM [7]: 41.1%
inhibition at 0.25 h, 10 µM [8]: > 100%
half-life [9]: 1.4 h
MRT inf [10]: 1.3 h
Vd [11]: 1.1 L/kg
Tmax [12]: 0.3 h
IC50 [13]: 2.5 µM
SMILES: COc1ccccc1Nc1c(N[C@H]2CC[C@H](Oc3ccc([N+](=O)[O-])cc3)CC2)c(=O)c1=O
Activity [1]: 16.2%
Activity [3]: 90.3%
Activity [14]: Dose-dependent-effect
Activity [15]: Dose-dependent-effect
Activity [16]: Active
Activity [17]: Active
Activity [18]: Active
Activity [19]: Active
Activity [20]: Active
Activity [21]: Active
Activity [22]: Active
Activity [23]: Active
inhibition [24]: Active
inhibition [25]: Active
inhibition [26]: Active
inhibition [27]: Active
Activity [28]: inactive
Activity [29]: inactive
Activity [30]: inactive
Activity [31]: inactive
Activity [32]: Active
Activity [33]: Active
Activity [34]: Active
Activity [35]: Active
Activity [36]: Active
